Common to all, as to assay type: cell-based
Assay [1] deals with Chlorella sp. (ATCC 7516). Put plainly: Evaluation of algaecidal activity (MIC) and checkerboard synergy, Chlorella sp. The procedure:
Evaluation of […] Activity: This test method provides a technique for screening newly synthesized compounds for their effectiveness to inhibit (repress) algae growth. […] Apparatus: Test tubes, 18-150 mm. Sterilized test tubes are required. Incubator, capable of a constant (±2° C.) temperature and light regulation. Reagents and Materials: [table] Inoculum: Cell suspension from a culture grown in modified Allen's medium for 14 days or as needed to attain a desired cell mass of Chlorella sp. (ATCC 7516) or Phormidium faveolarum (UTEX 427). The inoculum is calibrated at 82% transmittance measured at 590 nanometers wavelength before inoculation. Procedure: Medium preparation: Modified Allen's medium (Allen, A. A., 1968). [table] Sterilize the medium in the autoclave for 20 minutes at 15 pounds pressure (121° C.). After autoclaving, cool medium to 45-50° C. and dispense 5 ml of medium per test tube, then add the compound and the inoculum. Compound incorporation: Prepare a stock solution in water of the compound to be tested. The concentration of the stock solution is dependent on the largest dosage desired to be tested. Dilute the stock solution to obtain dosages smaller than that chosen for the stock solution. A maximum amount of 100 microliters of stock solution or the corresponding dilution should be added per test tube. Inoculation: Add 100 microliters of inoculum per test tube, per type of medium and type of inoculum. Incubation: Place the test tubes containing the treatments in an incubator set at 24° C. Light is provided by plant growth fluorescent tubes set to provide 16 h of light and 8 h of darkness. […] The minimum inhibitory concentration (MIC) of the compound is the smallest dosage showing negative algae growth. Synergy Evaluation: Synergy was measured by checkerboards dilutions (Yan and Hancock, 2001), in which one compound is diluted along the rows of test tubes and the other is diluted along the columns. This method focuses on looking for a reduction in the MIC of each component in the presence of the other.

Assay [2] concerns Phormidium faveolarum (UTEX 427). Put plainly: Evaluation of algaecidal activity (MIC) and checkerboard synergy, Phormidium faveolarum. Conditions: alone, system with 1 ppm a.i. Hydrogen Peroxide, 14 days at 24° C. How it is done: Evaluation of Algaecidal Activity: This test method provides a technique for screening newly synthesized compounds for their effectiveness to inhibit (repress) algae growth.
Apparatus: Test tubes, 18-150 mm. Sterilized test tubes are required.
Incubator, capable of a constant (±2° C.) temperature and light regulation.
Inoculum: Cell suspension from a culture grown in modified Allen's medium for 14 days or as needed to attain a desired cell mass of Chlorella sp. (ATCC 7516) or Phormidium faveolarum (UTEX 427). The inoculum is calibrated at 82% transmittance measured at 590 nanometers wavelength before inoculation.
Procedure: Medium preparation: Modified Allen's medium (Allen, A. A., 1968).
Sterilize the medium in the autoclave for 20 minutes at 15 pounds pressure (121° C.). After autoclaving, cool medium to 45-50° C. and dispense 5 ml of medium per test tube, then add the compound and the inoculum. […]
Synergy Evaluation: Synergy was measured by checkerboards dilutions (Yan and Hancock, 2001), in which one compound is diluted along the rows of test tubes and the other is diluted along the columns. […] The result is expressed as the Fractional Inhibitory Concentration Index (FIC), calculated as follows: FIC=[A]/MICA+[B]/MICB where, • MICA and MICB=MICs of the compounds A and B alone • [A] and [B]=MICs of the compounds A and B when in combination.

In assay [3] the test system is Enterobacter aerogenes (ATCC 13048). Put plainly: Evaluation of bactericidal activity (MIC, >=90% kill) and checkerboard synergy, Enterobacter aerogenes. As to conditions: Klebsiella aerogenes, ATCC13048; alone; system with 2 ppm a.i. Hydrogen Peroxide; 18 hours at 37° C.; read-out: MICA = MIC of Dichloramine B. How it is done: Synergy Evaluation: Synergy was measured by checkerboards dilutions (Yan and Hancock, 2001), in which one compound is diluted along the rows of test tubes and the other is diluted along the columns. This method focuses on looking for a reduction in the MIC of each component in the presence of the other. The result is expressed as the Fractional Inhibitory Concentration Index (FIC), calculated as follows: FIC=[A]/MICA+[B]/MICB where, • MICA and MICB=MICs of the compounds A and B alone • [A] and [B]=MICs of the compounds A and B when in combination.
Evaluation of Bactericidal Activity: This method is suitable for use in evaluating the antibacterial properties of chemicals by determining their MIC value. The MIC value represents the Minimum Inhibitory Concentration defined as the lowest level of compound required to achieve a ≧90% kill of a given organism.
Equipment • 1. Test tubes, 18×150 mm disposable culture tubes sterile • 2. Sterile 1 ml and 10 ml pipettes • 3. Incubator capable of maintaining a temperature of 37° C.±1° C. • 4. Autoclave • 5. pH meter • 6. […]
Rating of tubes via plate count method: The Pour Plate Count agar was prepared as described in Standard Methods (American Public Health Association; 1995). […] Colonies formed in or on the plate count medium within 48±2 h were counted as described in Standard Methods, and the results were reported as CFU/milliliter. […]

[4] abbreviates: alone, system with 1 ppm a.i. Hydrogen Peroxide, 14 days at 24° C.

This is an account of results in US20070197388A1, “Haloperoxidase treatment to control algae” (Buckman Laboratories International, Inc., priority 2006, published 2007).

Some results are limits rather than exact numbers.

The MIC is the least concentration at which growth counts as inhibited.

“Benzalkonium Chloride [reference compound]”: in assay [1] (Example 7, reinoculated only after 14 days, incubated 14 days (result not shown)), the “dosage controlling algae growth” value turned out to be 2 ppm a.i. In addition, the “MICA = MIC of Benzalkonium Chloride” value in assay [1] (alone, reinoculated after 14 days and treated with 1 ppm of hydrogen peroxide, incubated 14 days) came out at 2 MICA mg a.i./l; in assay [1] (setting [4]), 1 MICA mg a.i./l; in assay [2], 2 MICA mg a.i./l.

On to `CCCCCCCCCCCCCCCC[N+](C)(C)CC.[Br-]` [EHDB, Ethyl-n-Hexadecyl Dimethylammonium Bromide], for which the “MICA = MIC of EHDB” value in assay [1] (setting [4]) stood at 0.5 MICA mg a.i./l. Moreover, the minimum inhibitory concentration (MIC) in assay [2] (336 h, read-out: MICA = MIC of EHDB) turned out to be 0.5 µg/mL.

`O=S(=O)(c1ccccc1)N(Cl)Cl` [Dichloramine B, N,N-dichlorobenzenesulfonamide]: in assay [1] (combined with 1 ppm product of Haloperoxidase (Novozyme) and 2 ppm a.i. Hydrogen Peroxide, 14 days at 24° C.), the “MIC Dichloramine B combined with Haloperoxidase and Hydrogen Peroxide” value was less than 0.07 ppm a.i. For the same molecule, in assay [3], the MIC was 5 µg/mL.

B1: Myeloperoxidase: a myeloperoxidase enzyme obtained from Biodesign International (protein, UniProt P05164 165-745, looked up)
Myeloperoxidase: VTCPEQDKYRTITGMCNNRRSPTLGASNRAFVRWLPAEYEDGFSLPYGWTPGVKRNGFPVALARAVSNEIVRFPTDQLTPDQERSLMFMQWGQLLDHDLDFTPEPAARASFVTGVNCETSCVQQPPCFPLKIPPNDPRIKNQADCIPFFRSCPACPGSNITIRNQINALTSFVDASMVYGSEEPLARNLRNMSNQLGLLAVNQRFQDNGRALLPFDNLHDDPCLLTNRSARIPCFLAGDTRSSEMPELTSMHTLLLREHNRLATELKSLNPRWDGERLYQEARKIVGAMVQIITYRDYLPLVLGPTAMRKYLPTYRSYNDSVDPRIANVFTNAFRYGHTLIQPFMFRLDNRYQPMEPNPRVPLSRVFFASWRVVLEGGIDPILRGLMATPAKLNRQNQIAVDEIRERLFEQVMRIGLDLPALNMQRSRDHGLPGYNAWRRFCGLPQPETVGQLGTVLRNLKLARKLMEQYGTPNNIDIWMGGVSEPLKRKGRVGPLLACIIGTQFRKLRDGDRFWWENEGVFSMQQRQALAQISLPRIICDNTGITTVSKNNIFMSNSYPRDFVNCSTLPALNLASWREAS
Take B1: the “MIC (ppm product)” value in assay [1] (2 ppm a.i. hydrogen peroxide as substrate, 4 ppm a.i. ammonium bromide as electron donor) is reported as less than 0.1 ppm product.
